Measurements from paper PMC5589751, “Synthesis, high-throughput screening and pharmacological characterization of β–lactam derivatives as TRPM8 antagonists” (Scientific Reports, 2017).
Values joined by “and” are separate entries in the source; they are usually repeats but may differ in a detail not shown here. Equal values may be shown once.

Legend:
TRPM8 = target: T1, TRPM8 (Rattus norvegicus, UniProt Q8R455); test: Ca2+ microfluorography (Fluo-4 NW), menthol-induced Ca2+ signal in HEK-CR1-TRPM8 cells; format: cell-based; conditions: for % Block TRPM8 50 µM: 50 µM compound; for % Block TRPM8 50 µM / IC50: agonist 100 µM menthol, HEK-CR1-TRPM8 cells
T1 construct: expressed in transfected cells
Description: (§1) All compounds were tested at two different concentrations (50 and 5 µM) on TRPM8 and TRPV1 channels stably expressed in HEK and SH-SY5Y cell lines, respectively. The agonist induced intracellular Ca^2+ signals were measured using a fluorescent Ca^2+ indicator, in the absence and in the presence of test compounds. […] The obtained results were compared to those of 68 (AMTB, TRPM8 antagonist) and ruthenium red (TRPV1 antagonist). The IC50 values for the assay on TRPM8 were also calculated.
(§2) For fluorescence assays, cells expressing TRP channels (SH-SY5Y-TRPV1 and HEKCR1-TRPM8) were seeded in 96-well plates (Corning Incorporated, Corning, NY) at a cell density of 40,000 cells 2 days before treatment. The day of treatment the medium was replaced with 100 µL of the dye loading solution Fluo-4 NW supplemented with probenecid 2.5 mM. Then the compounds dissolved in DMSO were added at the desired concentrations and the plate(s) were incubated at 37 °C in a humidified atmosphere of 5% CO2 for 60 minutes.
(§3) The fluorescence was measured using instrument settings appropriate for excitation at 485 nm and emission at 535 nm (POLARstar Omega BMG LABtech). […] The corresponding antagonist
(§4) (10 µM Ruthenium Red forTRPV1 and 10 µM 68 for TRPM8) was added for the blockade. The changes in fluorescence intensity were recorded during 15 cycles more. […] The blocking percentage was calculated as follow (Eq. 1):1 %TRPBlockedResponse=(1−Fo−Fi/FCo−FCi)∗100 where Fo is the fluorescence after the addition of menthol in the presence of the compound, Fi is the fluorescence before the addition of menthol in the presence of the compound, FCo is the fluorescence after the addition of menthol in the absence of the compound, FCi is the fluorescence before the addition of menthol in the absence of the compound. To guarantee that our results were useful we only used assays with a Z-factor higher than 0.5.
(§5) The statistical Z-factor to determine the quality of the HTS experiment as was calculated using the equation 2:2 Z‐factor=1−3∗(SDmax+SDmin)/Meanmax−Meanmin where: Meanmax is the mean of the maximum fluorescence in the presence of agonist, SDmax is the standard deviation of the maximum fluorescence in the presence of agonists, Meanmin is the mean of the maximum fluorescence in the presence of agonist and antagonist and SDmin is the standard deviation of the maximum fluorescence in the presence of agonist and antagonist.

TRPV1 = TRPV1 (Rattus norvegicus, UniProt O35433); test: Ca2+ microfluorography (Fluo-4 NW), capsaicin-induced Ca2+ signal in SH-SY5Y-TRPV1 cells; format: cell-based; conditions: for % Block TRPV1 50 µM: 50 µM compound, agonist 10 µM capsaicin, SH-SY5Y-TRPV1 cells
Description: as §1, §2, §3, §4, §5

Kinetic solubility = format: physicochemical

T1 sequence (Q8R455 whole entry): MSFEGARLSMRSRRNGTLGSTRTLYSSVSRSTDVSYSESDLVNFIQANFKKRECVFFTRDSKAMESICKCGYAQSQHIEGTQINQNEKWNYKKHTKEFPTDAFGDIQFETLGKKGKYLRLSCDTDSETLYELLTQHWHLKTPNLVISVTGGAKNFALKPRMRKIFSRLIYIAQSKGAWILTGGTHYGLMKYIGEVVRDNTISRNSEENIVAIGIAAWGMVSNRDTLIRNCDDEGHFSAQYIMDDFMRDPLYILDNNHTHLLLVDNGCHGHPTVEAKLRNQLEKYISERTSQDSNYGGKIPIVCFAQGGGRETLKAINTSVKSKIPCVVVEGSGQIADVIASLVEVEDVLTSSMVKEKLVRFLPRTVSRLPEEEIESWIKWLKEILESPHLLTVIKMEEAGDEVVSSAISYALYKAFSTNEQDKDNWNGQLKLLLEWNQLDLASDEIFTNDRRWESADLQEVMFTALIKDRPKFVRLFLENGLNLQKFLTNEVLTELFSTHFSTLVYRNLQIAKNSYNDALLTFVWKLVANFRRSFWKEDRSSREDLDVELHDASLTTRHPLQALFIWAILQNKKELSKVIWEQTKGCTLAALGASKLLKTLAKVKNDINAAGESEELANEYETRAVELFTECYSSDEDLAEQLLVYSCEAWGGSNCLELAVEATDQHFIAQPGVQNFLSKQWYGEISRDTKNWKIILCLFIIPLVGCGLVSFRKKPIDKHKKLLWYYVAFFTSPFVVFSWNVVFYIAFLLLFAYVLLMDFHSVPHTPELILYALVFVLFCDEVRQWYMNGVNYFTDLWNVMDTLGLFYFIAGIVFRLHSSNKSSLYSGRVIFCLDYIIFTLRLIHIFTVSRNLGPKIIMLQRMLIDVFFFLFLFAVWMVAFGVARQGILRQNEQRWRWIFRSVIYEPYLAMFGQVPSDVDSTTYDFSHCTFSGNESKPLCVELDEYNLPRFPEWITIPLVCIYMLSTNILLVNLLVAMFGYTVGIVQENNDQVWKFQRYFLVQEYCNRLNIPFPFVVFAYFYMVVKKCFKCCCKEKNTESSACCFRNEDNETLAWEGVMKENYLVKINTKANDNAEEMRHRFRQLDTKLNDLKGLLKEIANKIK
Sequence of TRPV1 (O35433 whole entry): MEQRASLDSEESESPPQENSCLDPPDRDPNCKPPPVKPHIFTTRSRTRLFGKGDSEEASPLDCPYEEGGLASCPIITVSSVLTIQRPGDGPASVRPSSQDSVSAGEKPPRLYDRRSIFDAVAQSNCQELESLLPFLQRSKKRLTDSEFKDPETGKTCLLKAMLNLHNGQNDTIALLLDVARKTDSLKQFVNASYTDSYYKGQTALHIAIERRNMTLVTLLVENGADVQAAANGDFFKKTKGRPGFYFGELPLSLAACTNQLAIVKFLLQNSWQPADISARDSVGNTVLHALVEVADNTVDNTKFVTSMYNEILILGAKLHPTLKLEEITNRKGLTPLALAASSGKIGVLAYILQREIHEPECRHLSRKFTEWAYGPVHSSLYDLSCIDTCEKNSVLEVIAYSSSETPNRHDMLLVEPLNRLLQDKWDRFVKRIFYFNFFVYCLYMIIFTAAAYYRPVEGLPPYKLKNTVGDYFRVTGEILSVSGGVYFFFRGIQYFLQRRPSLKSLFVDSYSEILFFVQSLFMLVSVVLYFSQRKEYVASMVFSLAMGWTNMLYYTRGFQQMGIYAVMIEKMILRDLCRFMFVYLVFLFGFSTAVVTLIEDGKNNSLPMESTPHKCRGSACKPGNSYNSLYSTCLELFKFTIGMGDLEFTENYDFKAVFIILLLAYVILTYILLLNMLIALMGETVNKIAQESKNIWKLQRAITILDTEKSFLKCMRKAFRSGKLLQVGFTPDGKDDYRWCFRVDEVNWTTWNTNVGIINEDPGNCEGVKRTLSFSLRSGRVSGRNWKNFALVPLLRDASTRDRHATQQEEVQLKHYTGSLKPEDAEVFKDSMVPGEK

| SMILES | % Block TRPM8 50 µM (TRPM8) | IC50 (TRPM8) [µM] | % Block TRPV1 50 µM (TRPV1) [%] | also measured |
| --- | --- | --- | --- | --- |
| COC(=O)C(CCN1C(=O)CC1(Cc1ccccc1)C(=O)OC)NC(=O)OC(C)(C)C (stereo not drawn) [Compound 39] | 49.2 ± 15.3% | 50.2 ± 1.3 | – | – |
| COC(=O)C1(Cc2ccccc2)CC(=O)N1CCC(NC(=O)OC(C)(C)C)C(=O)OCc1ccccc1 (stereo not drawn) [Compound 40] | 75% | 6.8 ± 1.02 | 42.4 ± 5.3 | – |
| COC(=O)C1(Cc2ccccc2)CC(=O)N1CCC(NC(=O)OCc1ccccc1)C(=O)OC(C)(C)C (stereo not drawn) [Compound 42] | 82% and 82.2 ± 29.0% | 6.2 ± 1.6 | 51.7 ± 15.4 | – |
| COC(=O)C1(C)CC(=O)N1CC[C@H](NC(=O)OC(C)(C)C)C(=O)OCc1ccccc1 (stereo partly drawn) [Compound 43] | 80.5 ± 15.8% | 36.8 ± 3.1 | – | – |
| COC(=O)C1(C)CC(=O)N1CCC(NC(=O)OCc1ccccc1)C(=O)OC(C)(C)C (stereo not drawn) [Compound 44] | 21.3 ± 9.8% | 339.8 ± 1.4 | 26.8 ± 4.8 | – |
| CC(C)(C)OC(=O)NC(CCCN1C(=O)CC1(Cc1ccccc1)C(=O)OCc1ccccc1)C(=O)OCc1ccccc1 (stereo not drawn) [Compound 46] | 86.5±19.6% | 1.7 ± 2.7 | 59.4 ± 10.5 | reduction of TRPM8 blockade activity compared with homologue 41 (TRPM8; longer N-alkyl chain, 46 versus 41): up to 4 fold |
| COC(=O)C(CCCN1C(=O)CC1(Cc1ccccc1)C(=O)OC(C)(C)C)NC(=O)OCc1ccccc1 (stereo not drawn) [Compound 47] | 94.9 ± 19.7% | – | 49.8 ± 7.2 | – |
| CC(C)(C)OC(=O)NC(CCN1C(=O)CC1(Cc1ccccc1)C(=O)O)C(=O)O (stereo not drawn) [Compound 51] | 41.7 ± 8.7% | 74.1 ± 3.6 | 15.9 ± 4.3 | – |
| CC(C)(C)OC(=O)NC(CCCN1C(=O)CC1(Cc1ccccc1)C(=O)O)C(=O)O (stereo not drawn) [Compound 53] | 40.9 ± 10.3% | 68.4 ± 8.5 | 20.6 ± 9.2 | – |
| COC(=O)[C@H](C)NC(=O)[C@H](CCN1C(=O)C[C@@]1(Cc1ccccc1)C(=O)N[C@@H](C)C(=O)OC)NC(=O)OC(C)(C)C [Compound 57b] | 44.0 ± 16.5% | 70.4 ± 1.6 | – | – |
| COC(=O)[C@H](C)NC(=O)C1(Cc2ccccc2)CC(=O)N1CCC[C@H](NC(=O)OCc1ccccc1)C(=O)OC (stereo partly drawn) [Compound 58] | 50.7 ± 9.5% | 48.4 ± 18.6 | 18.3 ± 16.2 | – |
| COC(=O)[C@H](CCCN1C(=O)CC1(Cc1ccccc1)C(=O)N[C@H](C)C(=O)OC)NC(=O)OCc1ccccc1 (stereo partly drawn) [Compound 59] | 36.2 ± 22.3% | 81.2 ± 4.8 | 19.4 ± 5.1 | – |
| COC(=O)C(C)NC(=O)C1(Cc2ccccc2)CC(=O)N1CCCC(C(=O)OC)N(C)C(=O)OCc1ccccc1 (stereo not drawn) [Compound 60] | 71.3 ± 18.8% | 32.6 ± 1.8 | – | – |
| CNC(CCCN1C(=O)CC1(Cc1ccccc1)C(=O)NC(C)C(=O)OC)C(=O)OC (stereo not drawn) [Compound 61] | 78.3 ± 25.0% | 27 ± 1.7 | – | – |
| CC(C)(C)OC(=O)N[C@@H](CCN1C(=O)C[C@]1(Cc1ccccc1)C(=O)NCc1ccccc1)C(=O)NCc1ccccc1 [Compound 62a] | 70.0 ± 18.6% | 7.1 ± 0.3 | 42.5 ± 16.2 | Kinetic solubility (Kinetic solubility; 1% DMSO): 63 µM and 38 mg/L; Kinetic solubility (Kinetic solubility; 5% DMSO): 92 µM and 55 mg/L |
| CC(C)(C)OC(=O)NC(CCCN1C(=O)CC1(Cc1ccccc1)C(=O)NCc1ccccc1)C(=O)NCc1ccccc1 (stereo not drawn) [Compound 64] | 70.4 ± 15.2% | 11.5 ± 2.7 | 26.9 ± 9.2 | – |
| CC(C)(C)OC(=O)NC(CCN1C(=O)CC1(Cc1ccccc1)C(=O)Nc1cccnc1)C(=O)Nc1cccnc1 (stereo not drawn) [Compound 66] | 64.6 ± 13.2% | 5.7 ± 3.4 | 22.8 ± 3.7 | Kinetic solubility (Kinetic solubility; 1% DMSO): > 100 µM; Kinetic solubility (Kinetic solubility; 5% DMSO): > 500 µM; improved solubility respect to 41 (Kinetic solubility; ratio to compound 41): > 50 fold; improved solubility respect to 62 (Kinetic solubility; ratio to compound 62): > 5 fold |
| CC(C)(C)OC(=O)N[C@@H](CCN1C(=O)C[C@]1(Cc1ccccc1)C(=O)Nc1ccncc1)C(=O)Nc1ccncc1 [Compound 67a] | 43.5 ± 9.8% | 38.1 ± 6.3 | 36.3 ± 10.8 | – |
| CC(C)(C)OC(=O)N[C@@H](CCN1C(=O)C[C@@]1(Cc1ccccc1)C(=O)Nc1ccncc1)C(=O)Nc1ccncc1 [Compound 67b] | 52.3 ± 7.6% | 7.26 ± 1.9 | 31.7 ± 4.5 | – |
| Cc1cccc(COc2ccccc2C(=O)N(CCCN)Cc2cccs2)c1 [Compound 68, reference compound] | 100% | 7 ± 1 | – | – |
| N.N.N.N.N.N.N.N.N.N.N.N.N.N.[Cl-].[Cl-].[Cl-].[Cl-].[Cl-].[Cl-].[O-2].[O-2].[Ru+3].[Ru+3].[Ru+4] [Ruthenium red, reference compound] | – | – | 100 | IC50 (TRPV1; printed in the TRPM8 IC50 column, footnote a: evaluated in TRPV1): 0.015 µM |
| CC1CCC(C(C)C)C(O)C1 (stereo not drawn) [menthol, reference compound] | – | – | – | EC50 (TRPM8; agonist, in our assay): 137 µM |
